Earlier results as cited in patent US10052339B2, “Methods and compositions for treating symptoms of diseases related to imbalance of essential fatty acids” (BODYBIO INC, priority 2014, dated 2018).

Tests used:
[1] = target: CB1 cannabinoid receptor (Homo sapiens, UniProt P21554)
[2] = target: CB2 receptor (Homo sapiens, UniProt P34972)
[3] = tested on: mice

CB2 receptor, sequence (P34972 whole entry): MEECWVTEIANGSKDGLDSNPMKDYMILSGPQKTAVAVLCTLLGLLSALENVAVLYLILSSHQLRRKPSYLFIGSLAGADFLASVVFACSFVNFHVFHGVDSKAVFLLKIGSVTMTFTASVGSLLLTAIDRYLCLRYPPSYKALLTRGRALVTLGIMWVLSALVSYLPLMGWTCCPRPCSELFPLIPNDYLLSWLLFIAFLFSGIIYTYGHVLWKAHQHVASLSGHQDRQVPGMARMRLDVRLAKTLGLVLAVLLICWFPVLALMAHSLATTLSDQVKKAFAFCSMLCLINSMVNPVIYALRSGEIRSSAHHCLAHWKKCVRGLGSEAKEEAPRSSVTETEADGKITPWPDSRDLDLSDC
CB1 cannabinoid receptor, sequence (P21554 whole entry): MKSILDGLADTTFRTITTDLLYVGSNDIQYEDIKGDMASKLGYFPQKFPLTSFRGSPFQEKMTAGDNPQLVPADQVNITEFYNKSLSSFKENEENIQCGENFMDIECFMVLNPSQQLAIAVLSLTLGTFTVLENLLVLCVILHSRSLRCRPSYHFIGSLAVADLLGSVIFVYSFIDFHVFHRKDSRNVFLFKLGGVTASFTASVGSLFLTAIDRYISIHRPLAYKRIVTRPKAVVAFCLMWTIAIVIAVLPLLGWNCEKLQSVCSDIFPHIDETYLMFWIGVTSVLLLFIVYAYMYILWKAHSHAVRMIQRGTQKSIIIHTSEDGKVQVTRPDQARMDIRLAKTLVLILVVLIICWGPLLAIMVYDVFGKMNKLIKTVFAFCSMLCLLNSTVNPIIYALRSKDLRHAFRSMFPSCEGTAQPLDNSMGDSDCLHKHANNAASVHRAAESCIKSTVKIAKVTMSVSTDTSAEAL

CCCCC/C=C\C/C=C\C/C=C\C/C=C\CCCCOC(CO)CO [Noladin ether, 2-arachidonyl glyceryl ether]
Ki [1]: 21.2 nM
binding to the CB2 receptor [2]: only weakly
effects caused in mice [3]: sedation, hypothermia, intestinal immobility, and mild antinociception
